Some test systems named below: 786-0; A498; BT-549; COLO 205; HCC 2998; HCT-15; HL-60; HOP-62; HT-29; IGROV-1; NCI-H23; NCI-H460; PC-3; RPMI-8226; SF-295; SK-OV-3; SR; T47D; U-251; UO-31.
Holding throughout (assay): inhibition of tumour cell growth, NCI panel, 48 h

The source of these data is ChEMBL document CHEMBL1201862, “PubChem BioAssay data set” (2004).

The structures appear in SMILES notation.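 Where inhibition never reached the appropriate level, the endpoint shown equals the highest concentration tested. Otherwise, values were interpolated linearly from a five-concentration, 48-hour dose response in 96-well plates. GI50 marks 50% less growth.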 The source made the active and inactive calls. Rule as the data show it: active = GI50 up to about 1.1 µM and inactive = higher. Numbered stars: 1 amine (or outer) side, 2 acyl side, 3 side chain; on linkers, the order of the positions; unused ones are H or OH. Bridge positions count the residues as written; N and C are the ends. Square brackets hold non-standard residues; d marks the D form. Peptide text beside a SMILES is read from it. I, II: the chains in the order shown. Actinocin(9to1) = Cc1c2oc3c(C)ccc(C(=O)[*:1])c3nc-2c(C(=O)[*:2])c(N)c1=O; NMeH = CN[CH](Cc1c[nH]cn1)C(=O)O; Sar = CNCC(=O)O

Regarding `N#CC1=C(N)OC2=C(CCCc3ccc([N+](=O)[O-])cc32)C1c1ccccc1` (stereo not given), the GI50 in the assay with 786-0 is 9.98 µM (inactive); with A498, 2.76 µM (inactive); in the assay with BT-549, 4.5 µM (inactive); in the assay with COLO 205, 3.69 µM (inactive); in the assay with HCC 2998, 2.18 µM (inactive); in the assay with HCT-15, 2.45 µM. Also, the GI50 was 1.64 µM (inactive) in the assay with HL-60; 4.17 µM (inactive) in the assay on HOP-62; 3.44 µM (inactive) in the assay with HT-29; 4.19 µM (inactive) in the assay with IGROV-1; 4.97 µM (inactive) in the assay with NCI-H23; 4.49 µM (inactive) in the assay with NCI-H460. The GI50 was 8.3 µM (inactive) with PC-3; 2.9 µM (inactive) with RPMI-8226; 3.21 µM (inactive) in the assay with SF-295; 8.07 µM (inactive) in the assay with SK-OV-3; 2.36 µM (inactive) in the assay on SR; 6.24 µM (inactive) in the assay on T47D. Besides, the GI50 is 4.71 µM (inactive) with U-251 and 8.79 µM (inactive) with UO-31.

Consider `CN(C)CCCCN1c2ccccc2Sc2cc(N=[N+]=[N-])ccc21`, for which the GI50 in the assay on 786-0 was 1.69 µM (inactive); in the assay on A498, 10 µM (inactive); in the assay on BT-549, 11 µM (inactive); in the assay on COLO 205, 1.69 µM (inactive); with HCC 2998 it was 1.89 µM (inactive); with HCT-15 it was 1.85 µM. Moreover, the GI50 with HL-60 was 2.11 µM (inactive); in the assay with HOP-62, 2.28 µM (inactive); in the assay on HT-29, 1.55 µM (inactive); with IGROV-1, 1.73 µM (inactive); with NCI-H23, 9.66 µM (inactive); with NCI-H460, 1.89 µM (inactive). The GI50 in the assay with PC-3 is 1.86 µM (inactive); in the assay with RPMI-8226, 2.38 µM (inactive); in the assay on SF-295 it was 1.96 µM (inactive); in the assay on SK-OV-3, 2.2 µM (inactive); with SR, 2.54 µM (inactive); with T47D, 1.94 µM (inactive). Moreover, the GI50 in the assay on U-251 was 2.04 µM (inactive); with UO-31 it was 1.83 µM (inactive).

Turning to `Cc1c2oc3c(C)ccc(C(=O)NC4C(=O)NC(C(C)C)C(=O)N5CCCC5C(=O)N(C)CC(=O)N(C)C(Cc5cnc[nH]5)C(=O)OC4C)c3nc-2c(C(=O)NC2C(=O)NC(C(C)C)C(=O)N3CCCC3C(=O)N(C)CC(=O)N(C)C(Cc3cnc[nH]3)C(=O)OC2C)c(N)c1=O` (stereo not given) (I: TVP[Sar][NMeH] / II: TVP[Sar][NMeH]; ester I:1-I:C, II:1-II:C; linker I:N-II:N via Actinocin(9to1); configuration not given here), the GI50 is 45.6 µM (inactive) in the assay with 786-0; > 10 µM (inactive) with A498; > 100 µM (inactive) in the assay on BT-549; 31.3 µM (inactive) in the assay with COLO 205; 37.8 µM (inactive) in the assay with HCC 2998; greater than 100 µM in the assay on HCT-15. The GI50 in the assay on HL-60 is 63.7 µM (inactive); in the assay on HOP-62, 43.5 µM (inactive); in the assay on HT-29, 31.8 µM (inactive); with IGROV-1, 47.3 µM (inactive); in the assay with NCI-H23, 65.5 µM (inactive); in the assay with NCI-H460, 37.7 µM (inactive). Further, the GI50 in the assay with PC-3 was 55 µM (inactive); in the assay with RPMI-8226 it was 31.6 µM (inactive); with SF-295, 45.6 µM (inactive); in the assay on SK-OV-3, 69.3 µM (inactive); in the assay with SR it was 65.3 µM (inactive); in the assay on T47D, 47.5 µM (inactive). Further, the GI50 in the assay with U-251 is 57.1 µM (inactive); in the assay on UO-31, 46.8 µM (inactive).

Regarding `O=C1c2ccccc2C(=O)N1[C@@H](Cc1ccccc1)C(=O)n1cccc1CO`, the GI50 with 786-0 was > 100 µM (inactive); with A498, > 100 µM (inactive); in the assay with BT-549, > 100 µM (inactive); in the assay on COLO 205, > 100 µM (inactive); in the assay on HCC 2998, > 100 µM (inactive); in the assay with HCT-15, greater than 100 µM. For the same compound, the GI50 in the assay with HL-60, in the assay with HOP-62, in the assay on HT-29, in the assay on IGROV-1, in the assay on NCI-H23 and in the assay on NCI-H460 was > 100 µM (inactive) throughout. Besides, the GI50 in the assay on PC-3 was > 100 µM (inactive); with RPMI-8226, 93.8 µM (inactive); in the assay with SF-295, > 100 µM (inactive); in the assay on SK-OV-3, > 100 µM (inactive); with SR, > 100 µM (inactive); in the assay with T47D, > 100 µM (inactive). The GI50 in the assay on U-251 and with UO-31 was > 100 µM (inactive) throughout.

As to `O=C1C[C@H](Sc2ccccc2)C2(OCCO2)[C@H]2ON3CCC[C@@H]3[C@@H]12`, the GI50 is 1.21 µM (inactive) with 786-0; 13.2 µM (inactive) with A498; 4.56 µM (inactive) in the assay on BT-549; 1.66 µM (inactive) in the assay on COLO 205; 2.57 µM (inactive) in the assay on HCC 2998; 0.59 µM in the assay with HCT-15. Besides, the GI50 was 1.06 µM (active) in the assay with HL-60; 2.01 µM (inactive) in the assay on HOP-62; 0.759 µM (active) with HT-29; 0.9 µM (active) in the assay on IGROV-1; 1.91 µM (inactive) in the assay on NCI-H23; 2.92 µM (inactive) in the assay with NCI-H460. In addition, the GI50 with PC-3 is 2.48 µM (inactive); in the assay with RPMI-8226 it was 0.306 µM (active); in the assay on SF-295, 3.79 µM (inactive); with SK-OV-3 it was 3.13 µM (inactive); with SR it was 0.286 µM (active); with T47D, 2.06 µM (inactive). The GI50 is 1.88 µM (inactive) in the assay with U-251 and 1.58 µM (inactive) with UO-31.

Regarding `CO/C(N)=C(C#N)/N=C/c1ccccc1`, the GI50 in the assay with 786-0 was > 100 µM (inactive); in the assay on A498, > 100 µM (inactive); in the assay with BT-549, > 100 µM (inactive); in the assay with COLO 205, 71.9 µM (inactive); in the assay on HCC 2998, > 100 µM (inactive); with HCT-15, greater than 100 µM. Further, the GI50 in the assay with HL-60 is 35.7 µM (inactive); in the assay on HOP-62, > 100 µM (inactive); in the assay with HT-29 it was 51.3 µM (inactive); with IGROV-1, > 100 µM (inactive); in the assay on NCI-H23 it was > 100 µM (inactive); in the assay with NCI-H460, > 100 µM (inactive). The GI50 in the assay on PC-3, with RPMI-8226, in the assay on SF-295, with SK-OV-3, in the assay on SR and in the assay on T47D was > 100 µM (inactive) each time. The GI50 in the assay on U-251 was > 100 µM (inactive); in the assay on UO-31, 89.5 µM (inactive).

With `CC1(C)OC(=S)N(c2ccccc2)C12C=Cc1ccccc1O2` (stereo not given), the GI50 in the assay with 786-0 is > 100 µM (inactive); in the assay with A498, > 100 µM (inactive); in the assay with BT-549, 79.3 µM (inactive); with COLO 205, 63.4 µM (inactive); with HCC 2998, > 100 µM (inactive); in the assay with HCT-15 it was 58.9 µM. The GI50 in the assay on HL-60 is 8.59 µM (inactive); in the assay with HOP-62 it was > 100 µM (inactive); in the assay on HT-29, 56.6 µM (inactive); in the assay with IGROV-1 it was 41.6 µM (inactive); with NCI-H23 it was 41 µM (inactive); in the assay with NCI-H460 it was 71.6 µM (inactive). In addition, the GI50 is 41.7 µM (inactive) in the assay on PC-3; 24.8 µM (inactive) in the assay with RPMI-8226; 73.5 µM (inactive) with SF-295; 16.6 µM (inactive) in the assay on SK-OV-3; 4.26 µM (inactive) with SR; 20.5 µM (inactive) in the assay on T47D. Also, the GI50 with U-251 is > 100 µM (inactive); in the assay with UO-31, 45.6 µM (inactive).

Turning to `Cc1cc(NCCCCCCCNc2cc(C)nc3cc([N+](=O)[O-])ccc23)c2ccc([N+](=O)[O-])cc2n1`, the GI50 is 4.8 µM (inactive) in the assay on 786-0; 10.8 µM (inactive) with A498; 20 µM (inactive) in the assay on BT-549; 9.23 µM (inactive) in the assay with COLO 205; 11.1 µM (inactive) in the assay on HCC 2998; 2.55 µM in the assay on HCT-15. Moreover, the GI50 with HL-60 was 0.451 µM (active); in the assay with HOP-62 it was 20.5 µM (inactive); in the assay on HT-29 it was 2.53 µM (inactive); with IGROV-1, 9.44 µM (inactive); in the assay with NCI-H23 it was 5.18 µM (inactive); with NCI-H460 it was 2.04 µM (inactive). For the same compound, the GI50 in the assay on PC-3 is 13.5 µM (inactive); in the assay with RPMI-8226, 1.87 µM (inactive); in the assay with SF-295, 5.9 µM (inactive); in the assay on SK-OV-3, 24.9 µM (inactive); in the assay on SR, 1.53 µM (inactive); in the assay with T47D, 3.52 µM (inactive). The GI50 was 4.28 µM (inactive) with U-251 and 13.9 µM (inactive) in the assay with UO-31.

Consider `Nc1nc(Cl)cc(NCC2(CO)CC(Cc3ccccc3)C2)n1` (stereo not given), for which the GI50 in the assay on 786-0 was > 60.8 µM (inactive); with A498, 10.1 µM (inactive); in the assay with BT-549, 20.4 µM (inactive); in the assay on COLO 205, 29.8 µM (inactive); in the assay with HCC 2998 it was 30.7 µM (inactive); in the assay with HCT-15, 9.55 µM. Moreover, the GI50 was 4.71 µM (inactive) in the assay on HL-60; > 66.5 µM (inactive) with HOP-62; 29 µM (inactive) in the assay on HT-29; 48.4 µM (inactive) in the assay on IGROV-1; 34.4 µM (inactive) in the assay with NCI-H23; 22.5 µM (inactive) in the assay on NCI-H460. Besides, the GI50 with PC-3 is 30.6 µM (inactive); in the assay on RPMI-8226, 15 µM (inactive); in the assay with SF-295 it was 11.3 µM (inactive); in the assay on SK-OV-3, 52 µM (inactive); in the assay with SR, 9.27 µM (inactive); in the assay with T47D, 1.34 µM (inactive). Further, the figures for the GI50 with U-251 and in the assay with UO-31 were 27.9 µM (inactive) and 23.4 µM (inactive), respectively.

With `O=C1/C(=N\NC(=S)NC2CCCCC2)c2cc([N+](=O)[O-])ccc2N1CN1CCOCC1`, the GI50 in the assay on 786-0 was 5.52 µM (inactive); in the assay on A498, 4.8 µM (inactive); in the assay on BT-549, 4.86 µM (inactive); in the assay with COLO 205, 5.32 µM (inactive); in the assay on HCC 2998, 4.93 µM (inactive); in the assay with HCT-15, 2.39 µM. Besides, the GI50 is 3.32 µM (inactive) in the assay with HL-60; 10.3 µM (inactive) in the assay on HOP-62; 4.48 µM (inactive) in the assay with HT-29; 1.51 µM (inactive) in the assay on IGROV-1; 5.93 µM (inactive) in the assay with NCI-H23; 2.55 µM (inactive) in the assay with NCI-H460. For the same compound, the GI50 is 4.7 µM (inactive) with PC-3; 11.3 µM (inactive) in the assay with RPMI-8226; 3.67 µM (inactive) with SF-295; 13 µM (inactive) in the assay with SK-OV-3; 1.14 µM (inactive) in the assay on SR; 2.64 µM (inactive) with T47D. Moreover, the values for the GI50 in the assay on U-251 and in the assay with UO-31 were 4.52 µM (inactive) and 6.31 µM (inactive), respectively.
